The source of these data is patent US20040029208A1, “Assay method and kit for testing biological material for exposure to stress using biomarkers” (priority 2000, published 2004).

Experiment [1] relates to Anagallis arvensis. The experiment can be described thus: Visual effect rating (0-9) after herbicide spraying. In kind it is in vivo. The conditions noted are these: Roundup Bio, Anagallis arvensis. An excerpt:
(§1) Four, eight, sixteen and thirty two days after spraying, visual effects on plants were noted before harvest, using the rating chart described in Hamil. et al. (1977) and Boutin et al. (1993); a rating of zero indicates full growth and vigour, and a rating of nine indicates no growth/mortality.
(§2) The min. visual effect (VE) of the presence of plant biomarkers is rated as described by Hamil et al., (1977) and Boutin et al. (1993).

For experiment [2], the system named is Plantágo lanceoláta. The experiment is described as above. In kind it is in vivo.
Source text: as §1, §2

Experiment [3] deals with Lólium perénne. Described as above. The class given is in vivo. The conditions noted are these: Roundup Bio, Lólium perénne.
Source text: as §1, §2

The test system of experiment [4] is Centauréa cýanus. The experiment is described as above. In kind it is in vivo.
Source text: as §1, §2

The subject of experiment [5] is Rudbeckia hirta. The experiment can be described thus: Visual effect rating (0-9) after Roundup Bio. In kind it is in vivo. The protocol: as §1
(§3) The study was performed in greenhouse between August and December 1998 for all species. Degree days (=(Present temperature in ° C.-5° C.)×amount of days) were used as time scale. The plants were 226-378 degree days (30 days) old before exposure. The plants were exposed to 0, 1. 10 and 100% of the recommended field dose of Roundup Bio. Before the harvest, the plants were evaluated for visual effects using the rating chart described in Table 1 (Hamit et al., 1977). A rating of zero indicates full growth and vigour (compared with control plants) and a rating of nine, no growth/mortality. The plants were all harvested 180 degree days (14 days) after exposure. The plants were lyophilizied and k pt dry and in dark before phytochemical analysis.
(§4) Table 2: Sensitivity of plants exposed to glyphosate (Roundup Bio), based on presence of phytochemical changes in all the TLC-Systems at lowest dose of concentration (LC) of the herbicide in percent of field dose. The corresponding visual effect (VE) Is presented (see table 1).

The subject of experiment [6] is Leonorus carica. The experiment can be described thus: Visual effect rating (0-9) after Roundup Bio. In kind it is in vivo. The method, then: as §1, §3, §4
In experiment [7] the test system is Nepeta cataria. In words: Visual effect rating (0-9) after Roundup Bio. In kind it is in vivo. The method, then: as §1, §3, §4
The subject of experiment [8] is Mentha spicata. In words: Visual effect rating (0-9) after Roundup Bio. The class given is in vivo. The protocol: as §1, §3, §4
Experiment [9] relates to Papaver rhoeas. The experiment can be described thus: Visual effect rating (0-9) after Roundup Bio. The class given is in vivo. The protocol:
as §1, §3, §4

Experiment [10] deals with Sinapis avensis. The experiment can be described thus: Visual effect rating (0-9) after Roundup Bio. The class given is in vivo. The protocol: as §1, §3, §4
In experiment [11] the test system is Bellis perennis. The experiment can be described thus: Visual effect rating (0-9) after Roundup Bio. In kind it is in vivo. The method, then: as §1, §3, §4
Experiment [12] has as its system Plantágo lanceoláta. The experiment can be described thus: TLC plant biomarker pattern after herbicide spraying (greenhouse). In kind it is in vivo. The protocol:
(§5) The experiments were performed in the green-house at the National Environmental Research Institute, Silkeborg, Denmark. All the seeds needed light to germinate, and were sown at the soil surface in individual 11 cm pots. The soil used during the experiments contained: (SM Growing Mould (Growing medium by special soil (sphagnum) added clay granulate), 0-30 mm; grade of turnover 55-75; added per m^3: 3 kg lime (white chalk), 1.5 kg dolit chalk, 40 kg clay granulate; Fertilizer added granulate: NO3-N: 55.0 g; NH4-N: 65.0 g; P: 106.6 g; K: 224.0 g; Mg: 22 g; Micro nutrients added in chelate form, Mo in uorganic form: B-Boron: 1 g; Cu-copper: 6 g; Mn-Manganese: 3 g; Zinc-Zn: 3 g: Fe-iron: 6 g; Mo- molybdenum: 1.4 g).
(§6) During the experiments plants were watered from below, and the temperature in the green-house was maintained between 15° C. and 25° C. with variations due to external weather, and the photoperiod was 16th daylight. The green-house is divided into different units, which allowed for the separate maintenance of the control plants from the sprayed plants to avoid undesirable effects due to vapour drift.
(§7) Glyphosate (Roundup Bio (360 g L^−1) was supplied by Monsanto Denmark A/S. Recommended field dose=1,44 kg a.i. ha^−1. In all the experiments, an automatic sprayer (designed in Denmark by Jens Kristensen 1994) was used where the herbicide application is achieved by moving boom equipment with two ordinary hydraulic flat fan nozzles (Hardi 4110-16). Two pots per spray event were placed in the middle of the spray chamber at 50 cm distance from the nozzle, delivering 200 L of water per-hectare with a desired herbicide concentration (working pressure 2 bars; speed of spray boom=4.7 km h^−1). The spraying was performed starting with the lowest concentration first, progressing towards the highest concentration. Between each herbicide, the sprayer was thoroughly rinsed several times with water. The control plants were sprayed with water.
(§8) The fresh plant material was pressed using a hand press. The extract was immediately centrifuged. (3000 rpm) for 10 minutes. The supernatant was used for analysis. The extracts were kept cool or right above 0° C. during the test to avoid decomposition of biomarkers.
(§9) Freeze-dried plant material was crushed and 250 mg was extracted with 5.00 ml 75% ethanol in an ultrasonic bath for 2 hours. The temperature was kept <0° C. (using ice) during the extraction to avoid decomposition of biomarkers. The extract was centrifuged (3000 rpm) for 10 minutes. The supematant was used for analysis and were kept cool during the test to avoid decomposition of biomarkers.
(§10) The two extracts (freshtfresh ethanol) were applicated immediately on a TLC plate (10 μl on both TLC-Plate types (see below) using cool air-drying. The 75% ethanolic extract was applicated 10 μl on Silica-gel TLC-plates and 5 μl on Cellulose TLC-plates (see below). The fresh/fresh ethanolic extractsare recommended to perform if fresh plant material are to be analysed (field-test). The freeze-dried or frozen plant material extraction Is recommended if the analysis are performed in the laboratory.
(§11) TLC-System 1: HPTLC-Alufolie Silica Gel 60 F254, Merck 1.05548 (10×10 cm); 10 μl plant extracts plants exposed to glyphosate and control plants; eluted in n-butanol acetic acid: water (4:1:5) (upper phase after 5 minutes shaking). Derivatisation: Stock solution 1:50% sulfuric acid in 96% ethanol; Stock solution 2: 2% vanillin in absolut alcohol; Derivatisation-solvent, Fresh produced before us, stock solution 1 and stock solution 2 (1:10); Aftercare: 120° C. in 2-3 min. The plate is valuated visually. The system detects higher alcoholics, phenolic compounds, steroids and etheric oils (Stahl 1969), terpenoids, phenyl propanolds, phenolic compounds (Wagner etea. 1984) […]

Experiment [13] relates to Lólium perénne. Described as above. In kind it is in vivo. The following applies: Roundup Bio; Lólium perénne. The protocol:
as §5, §6, §7, §8, §9, §10, §11

Experiment [14] concerns tobacco cell cultures. The conditions noted are these: two cell lines, in the presence of glyphosate; cited from earlier work.

For the compound `O=C(O)CNCP(=O)(O)O` [Glyphosate], the “VE: corresponding visual effect” value in experiment [1] is 0; in [3] it was 0; in experiment [5], 1; in [6], 5; in experiment [7], 7; in [8] it was 6. Further, the “VE: corresponding visual effect” value amounted to 4 in experiment [9], 7 in experiment [10] and 7 in [11]. Further, the Min. visual effect in experiment [2] (at presence of TLC 1 biomarker) is 0; in experiment [2] (at presence of TLC 6 biomarker) it was 4; in experiment [4] (at presence of TLC 1 biomarker), 3; in experiment [4] (at presence of TLC 6 biomarker) it was 3; in experiment [4] (at presence of TLC 7 biomarker), 3. Also, the “LC: lowest dose of concentration of the herbicide with phytochemical changes in all the TLC-Systems” value in experiment [12] (Roundup Bio, Plantágo lanceoláta) was 1% of field dose; in experiment [13], 1% of field dose. Moreover, the “Min. of label dose of herbicide with effect” value in experiment [12] (TLC 1 (non-specific compounds)) was 1%; in experiment [12] (TLC 2 (phenolic compounds)), 1%; in experiment [12] (TLC 6 (lipids and terpens)), 1%; in experiment [12] (TLC 7 (non-specific compounds)), 1%; in experiment [12] (TLC 4d (amino acids)), 1%. Moreover, the “increase of levels of free shikimic acid” value in experiment [14] was “more than 300 fold”.
